Results on twelve compounds are retold here after patent US7345078B2, “NF-κB inhibitors and uses thereof” (The Board of Trustees of Michigan State University, priority 2002, dated 2008).

Read-outs that look alike come from different tables or passages of the source. Marks after values point to notes of the source that are not given here.

Data set [1] concerns the target T1, NF-κB (Homo sapiens, UniProt P19838+Q04206). Put plainly: EMSA of nuclear NF-κB-DNA binding in nuclear extracts of PMA-stimulated Jurkat leukemia T-cells. It is filed as cell-based. On the set-up: endogenous in cells; host or cells: Jurkat leukemia T-cells, clone E6-1 (ATCC), PMA-stimulated; nuclear extract. Here is the method:
(§1) All compounds were evaluated for their potential anti-inflammatory activity by examining the activity of NF-κB in vitro in nuclear extracts using the procedure from Breton and Charbot-Fletcher (Breton et al., J. Pharmacol. Exp. Ther. 282 459-466 (1997)). […] The Jurkat cells (1×10^7 cells/mL) are subsequently treated with various concentrations of imidazoline for 30 minutes at 37° C. followed by PMA stimulation (5.0 ng/mL) for an additional 5 hours. Nuclear extracts are incubated for 20 minutes with a double stranded Cy3 labeled NF-κB consensus oligonucleotide, 5′-[…]-3′ (SEQ ID NO:1) at room temperature. The crude mixture is loaded on a 5% non-denaturing polyacrylamide gel prepared in 1×Tris borate/EDTA buffer and electrophoresed at 200V for 2 hours. After electrophoresis the gel is analyzed using a phosphorimager (Biorad FX PLUS) for detection of the NF-κB-DNA binding.
EMSA assay for NF-κB-DNA binding was as follows. […] The Jurkat cells (1×10^6 cells/mL) were subsequently treated with various concentrations of the compounds for 30 minutes at 37° C. and 5% CO2 followed by PMA (50 ng/mL) and PHA ([…]) stimulation for an additional 30 minutes. The cells were harvested by centrifugation, washed in ice cold PBS and the nuclear extracts were prepared as previously described (Dignam, et al., Nucl. Acids Res 11: 1475-1489 (1983)). The protein concentration of the extracts was determined according to the Method of Bradford (1976) with BioRad reagents. Nuclear extracts are incubated for 20 minutes at room temperature with a double stranded Cy3 labeled NF-kB consensus oligonucleotide, 5′-[…] CCAGGC-3′ (SEQ ID NO:1). The binding mixture ([…]) contained 10 mM HEPES-NaOH pH 7.9, 4 mM tris-HCl, pH 7.9, 6.0 mM KCl, 1 mM EDTA, 1 mM DTT, 10% glycerol, 0.3 mg/mL bovide serum albumin and […] of poly (dI.dC). The binding mixtures ([…] of nuclear extract protein) were incubated for 20 minutes at room temrperature with 0.16 pmol of Cy3 labeled oligonucleotide. The mixture was loaded on a 4% polyacrylamide gel prepared in 1× tris borate/EDTA buffer and was electrophoresed at 200 V for 20 minutes. After electrophoresis the gel was analyzed using a phosphorimager (Biorad FX plus) for detection of the NF-kB—DNA binding.
Background: A gel shift assay detects complexes by their altered migration in electrophoresis.

The target in data set [2] is T1, NF-κB. Put plainly: IC50 values in Mammalian Jurkat cells Leukemia T cells. The following applies: concentration at which 50% of the protein/enzyme is inhibited in cells. Also on record: endogenous in cells; host or cells: Jurkat leukemia T-cells, clone E6-1 (ATCC), PMA-stimulated; nuclear extract. The data set is classed as cell-based. Here is the method:
as §1
IC50 values in Mammalian Jurkat cells Leukemia T cells: IC50 value is defined as the concentration of compounds at which 50% of the protein/enzyme is inhibited in cells (Table 3).

A further data set deals with RIF-1 murine tumor. Put plainly: RIF-1 murine model of tumor growth delay. The following applies: for Days Delay (tumor growth delay) / Median (days to 4x) / Days to 4x (Ave ±SE) / T/C (ratio of Days to 4x of treated over untreated controls): IP, imidazoline 100 mg/kg, cis-platin 4 mg/kg, camptothecin 6 mg/kg; for Median (days to 4x): untreated 7.0; for Days to 4x (Ave ±SE): untreated 7.3 ± 0.6; for chemopotentiation of camptothecin: combinational treatment with camptothecin (CPT); for chemopotentiation of camptothecin / chemopotentiation of cis-platin: RIF-1 tumors in mice; for chemopotentiation of cis-platin: combinational treatment with cis-platin (CDDP). The data set is classed as in vivo, mice. Here is the method: Tumor cells were injected, bilaterally, into the backs of mice. When tumors reached 100 mm^3, the mice were treated with an intraperitoneal injection of the compound. Tumor volumes were measured 3 times a week until they reached 4 times the size they were on the first treatment day. Data is recorded as “Days to 4×’ or ratio of ‘Days to 4×” of the treated over untreated controls.

Another data set relates to CEM cells. The following applies: for sensitization of CEM cells towards camptothecin: camptothecin 0.1 μM. How it is done:
Imidazolines 28-33 were evaluated for their ability to enhance the activity of camptothecin in CEM cells. Induction of apoptosis is the hallmark of most chemotherapeutic agents including camptothecin. The systematic disassembly of apoptotic cells is accomplished by active caspases (Thornberry et al., Nature 356: 768-774 (1992); Nicholson et al., Trends Biochem. Sci. 22: 299-306 (1997)). A standard apoptosis assay is Promega's APO-ONE homogeneous caspase-3/7 assay, which takes advantage of this caspase activity to directly quantify the induction of apoptosis in cells (Thornberry et al., Nature 356: 768-774 (1992); Nicholson et al., Trends Biochem. Sci. 22: 299-306 (1997)). According to the hypothesis that NF-κB inhibition should enhance the activity of chemotherapeutic agents via the inhibition of anti-apoptotic signaling pathway—thus enhancement of apoptosis—(Boland, Biochem Soc Trans 29: 674-678 (2001); Chiao et al., Cancer 95: 1696-1705 (2002)), we investigated the effects of the imidazolines using this caspase-3/7 assay. This assay quantifies the level of apoptotic cell death induced by camptothecin with and without the imidazolines and will establish the direct level of enhancement of apoptosis by camptothecin.
Induction of apoptosis using caspase 3/7 assay was as follows. CEM cells (CCRF-CEM); Amer. Type Culture Collection, Rockville, Md.) were grown in RPMI-1640 Media (Gibco-BRL, Rockville, Md.) supplemented with 10% fetal bovine serum, penicillin (614 ηg/mL), streptomycin (10 μg/mL) and hepes buffer, pH 7.2 at 37° C., 5% CO2. DMSO was used as the vector for all drugs and added in the control experiments. Cell cultures were treated with 1 μM, 0.1 μM or 10 nM of the imidazolines and allowed to incubate at 37° C., 5% CO2. An aliquote was transferred to a 96-well plate and mixed with an equal volume of Apo-ONE™ Homogenous Caspase-3/7 assay (Promega Corporation) reagent. The contents of the plate were gently mixed and allowed to incubate for 1 hour. The fluorescence of each well was then measured on a Molecular Imager FX Pro at 532 nm. All reported data was the average of two independent experiments unless otherwise indicated.

The target in data set [3] is T1, NF-κB. Put plainly: EMSA of camptothecin activated NF-κB in CEM leukemia T-cells. It is filed as cell-based. Also on record: endogenous in cells; nuclear extract. The following applies: camptothecin 10 μM to 10 nM, 2 hours.
Method: CEM cells were incubated with and without varying concentrations of camptothecin (CPT). Positive controls included PMA/PHA activation (FIG. 11, lane 2). Lane 3 included a positive control using PMA/PHA activation followed by the treatment of the extract with a NF-κB p65 antibody to unambiguously identify the NF-κB/DNA complex.
CEM cells were treated with various concentration of imidazoline 32, 30 minutes prior to activation by camptothecin (0.1 μM). […] Control lanes include: DNA only (lane 1), PMA/PHA activated NF-κB (lane 2), PMA/PHA activated NF-κB treated with a p65 antibody, which provide a supershift (lane 3) and the unactivated control (lane 4).
EMSA assay for NF-κB-DNA binding was as follows. […] The cells were harvested by centrifugation, washed in ice cold PBS and the nuclear extracts were prepared as previously described (Dignam, et al., Nucl. Acids Res 11: 1475-1489 (1983)). The protein concentration of the extracts was determined according to the Method of Bradford (1976) with BioRad reagents. Nuclear extracts are incubated for 20 minutes at room temperature with a double stranded Cy3 labeled NF-kB consensus oligonucleotide, 5′-[sequence] […] The binding mixture (25 mL) contained 10 mM HEPES-NaOH pH 7.9, 4 mM tris-HCl, pH 7.9, 6.0 mM KCl, 1 mM EDTA, 1 mM DTT, 10% glycerol, 0.3 mg/mL bovide serum albumin and 1 mg of poly (dI.dC). The binding mixtures (10 mg of nuclear extract protein) were incubated for 20 minutes at room temrperature with 0.16 pmol of Cy3 labeled oligonucleotide. The mixture was loaded on a 4% polyacrylamide gel prepared in 1× tris borate/EDTA buffer and was electrophoresed at 200 V for 20 minutes. After electrophoresis the gel was analyzed using a phosphorimager (Biorad FX plus) for detection of the NF-kB—DNA binding.

T1 sequence (Q04206 whole entry): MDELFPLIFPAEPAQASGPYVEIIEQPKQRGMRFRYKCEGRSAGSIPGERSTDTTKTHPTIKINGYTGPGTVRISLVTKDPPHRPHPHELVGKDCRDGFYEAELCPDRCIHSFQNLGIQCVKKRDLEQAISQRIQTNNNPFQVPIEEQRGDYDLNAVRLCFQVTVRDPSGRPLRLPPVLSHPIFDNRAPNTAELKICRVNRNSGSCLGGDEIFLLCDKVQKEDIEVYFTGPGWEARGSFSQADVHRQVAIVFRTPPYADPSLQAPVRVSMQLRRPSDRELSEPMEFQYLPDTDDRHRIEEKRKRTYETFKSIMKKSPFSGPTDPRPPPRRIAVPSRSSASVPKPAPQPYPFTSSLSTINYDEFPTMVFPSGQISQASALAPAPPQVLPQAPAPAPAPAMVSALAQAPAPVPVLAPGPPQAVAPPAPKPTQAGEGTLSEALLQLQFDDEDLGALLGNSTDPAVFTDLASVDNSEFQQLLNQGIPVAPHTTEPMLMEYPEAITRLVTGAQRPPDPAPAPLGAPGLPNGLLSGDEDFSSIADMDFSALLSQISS
T1 sequence (P19838 1-433 limits assumed): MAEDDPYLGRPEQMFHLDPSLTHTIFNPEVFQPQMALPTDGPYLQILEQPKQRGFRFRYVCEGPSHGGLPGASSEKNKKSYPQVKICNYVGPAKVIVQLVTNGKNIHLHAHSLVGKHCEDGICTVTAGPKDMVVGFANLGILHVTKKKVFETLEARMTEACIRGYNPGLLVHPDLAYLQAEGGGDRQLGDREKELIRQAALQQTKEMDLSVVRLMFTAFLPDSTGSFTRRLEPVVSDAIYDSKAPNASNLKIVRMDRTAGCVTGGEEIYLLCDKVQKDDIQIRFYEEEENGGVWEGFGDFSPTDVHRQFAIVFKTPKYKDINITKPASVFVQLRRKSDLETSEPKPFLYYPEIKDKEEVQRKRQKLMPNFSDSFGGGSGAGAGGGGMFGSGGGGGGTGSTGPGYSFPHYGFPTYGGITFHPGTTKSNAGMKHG

The compound `C[C@]1(C(=O)O)N=C(c2ccccc2)N(Cc2ccccc2)[C@H]1c1ccccc1` (racemic) [Compound 1, Dl-(3S,4S)-1-Benzyl-4-methyl-2,5-diphenyl-4,5-dihydro-1H-imidazole-4-carboxylic acid] displayed an inhibition at 1 µM on NF-κB [1] (compound 1.0 μM) of 19%. This compound also registered an IC50 against NF-κB [2] of 1.95 µM. Further, in the data set with RIF-1 murine tumor, the “Days Delay (tumor growth delay)” value was -0.57 days, the “Median (days to 4x)” value is listed as 6.4 days, the “Days to 4x (Ave ±SE)” value was 6.5 ± 0.3 days and the chemopotentiation of camptothecin entry is “no significant chemopotentiation”. Further, the chemopotentiation of cis-platin result in the data set on RIF-1 murine tumor is recorded as “no significant chemopotentiation”.
In turn, `COc1ccc([C@@H]2N(Cc3ccccc3)C(c3ccccc3)=N[C@]2(C)C(=O)O)cc1` (racemic) [Compound 2, Dl-(3S,4S)-1-Benzyl-5-(4-methoxyphenyl)-4-methyl-2-phenyl-4,5-dihydro-1H-imidazole-4-carboxylic acid] gave an inhibition at 1 µM on NF-κB [1] (compound 1.0 μM) of 68%. At NF-κB [2], the IC50 turned out to be 0.04 µM.
At NF-κB [1] (compound 1.0 μM), `C[C@]1(C(=O)O)N=C(c2ccccc2)N(c2ccc(F)cc2)[C@H]1c1ccccc1` (racemic) [Compound 3, Dl-(3S,4S)-1-(4-Fluorophenyl)-4-methyl-2,5-diphenyl-4,5-dihydro-1H-imidazole-4-carboxylic acid] showed an inhibition at 1 µM of 35%. This compound also returned an IC50 at NF-κB [2] of 0.0065 µM. Also, in the data set on RIF-1 murine tumor, the “Days Delay (tumor growth delay)” value is -0.20 days, the “Median (days to 4x)” value stood at 6.8 days, the “Days to 4x (Ave ±SE)” value came out at 7.6 ± 1.0 days and the chemopotentiation of camptothecin result is reported as “no significant chemopotentiation”. For the same compound, the chemopotentiation of cis-platin result in the data set on RIF-1 murine tumor is reported as “no significant chemopotentiation”.
Take `O=C(O)C1(Cc2c[nH]c3ccccc23)N=C(c2ccccc2)N(Cc2ccccc2)C1c1ccccc1` (racemic) [Compound 5, Dl-(3S,4S)-1-Benzyl-4-(1H-indol-3-ylmethyl)-2,5-diphenyl-4,5-dihydro-1H-imidazole-4-carboxylic acid]: the “% inhibition of NF-κB” value on NF-κB [1] (compound 1.0 μM) was 0%.
Take `CCOC(=O)[C@H]1N(c2ccc(F)cc2)C(c2ccccc2)=N[C@]1(C)C(=O)O` (racemic) [Compound 8, Dl-(3S,4S)-1-(4-Fluorophenyl)-4-methyl-2-phenyl-4,5-dihydro-1H-imidazole-4,5-dicarboxylic acid 5-ethyl ester]: the “% inhibition of NF-κB” value on NF-κB [1] (compound 0.1 μM (100 nM)) came out at 88%; at NF-κB [1] (compound 1.0 μM), 94%.
`CCOC(=O)[C@@]1(C)N=C(c2ccccc2)N(Cc2ccccc2)[C@H]1c1ccncc1` (racemic) [Compound 9, Dl-(3S,4S)-1-Benzyl-4-methyl-2-phenyl-5-pyridin-4-yl-4,5-dihydro-1H-imidazole-4-carboxylic acid ethyl ester]: the “% inhibition of NF-κB” value at NF-κB [1] (compound 0.1 μM (100 nM), 0.1 µM) is recorded as 71%.
Turning to `CCOC(=O)C1(C)N=C(c2ccccc2)N(Cc2ccccc2)C1c1ccccc1` (racemic) [Compound 10, Dl-(3S,4S)-1-Benzyl-4-methyl-2,5-diphenyl-4,5-dihydro-1H-imidazole-4-carboxylic acid ethyl ester], at NF-κB [1] (compound 0.1 μM (100 nM)), the “% inhibition of NF-κB” value was 22%.
With `CCOC(=O)[C@H]1N(c2ccc(F)cc2)C(c2ccccc2)=N[C@]1(C)C(=O)O` (racemic) [Compound 29, dl-(4S,5S)-1-(4-Fluorophenyl)-4-methyl-2-phenyl-4,5-dihydro-1H-imidazole-4,5-dicarboxylic acid 5-ethyl ester], the “Apoptosis (±S.D.)” value with CEM cells (Compound 1.0 μm alone, T-cells, 48 hour period, cells only = 1.00 (normalized)) was found to be 0.95 ± 0.24.
`CCOC(=O)[C@H]1N(c2ccc(F)cc2)C(c2ccccc2)=N[C@@]1(C(=O)O)c1ccccc1` (racemic) [Compound 30, dl-(4S,5S)-1-(4-Fluorophenyl)-2,4-diphenyl-4,5-dihydro-1H-imidazole-4,5-dicarboxylic acid 5-ethyl ester]: in the data set with CEM cells, the “Apoptosis (±S.D.)” value was 1.18 ± 0.20. The “sensitization of CEM cells towards camptothecin” value with CEM cells (0.01 μM imidazoline), in the data set with CEM cells (0.1 μM imidazoline) and in the data set with CEM cells (1 μM imidazoline) was “sensitization” in each case.
Regarding `C[C@]1(C(=O)O)N=C(c2ccccc2)N(Cc2ccccc2)[C@H]1c1ccncc1` (racemic) [Compound 31, dl-(4S,5S)-1-Benzyl-4-methyl-2-phenyl-5-pyridin-4yl-4,5-dihydro-1H-imidazole-4-carboxylic acid], in the data set on CEM cells, the “Apoptosis (±S.D.)” value is 1.18 ± 0.00^b. The “sensitization of CEM cells towards camptothecin” value with CEM cells (0.01 μM imidazoline), in the data set on CEM cells (0.1 μM imidazoline) and in the data set with CEM cells (1 μM imidazoline) was “sensitization” in each case.
Turning to `CC[C@@]1(O)C(=O)OCc2c1cc1n(c2=O)Cc2cc3ccccc3nc2-1` [Camptothecin, camptothecin, reference compound], in the data set with CEM cells (CEM cells, imidazoline 1.0 μM + CPT 0.1 μM versus CPT 0.1 μM), the “Fold enhancement of camptothecin (0.1 μM) after 48 hours” value was 1.00. Further, the “NF-κB/DNA binding due to NF-κB activation” value on NF-κB [3] is “significant amount of NF-κB/DNA binding”. Further, in the data set with RIF-1 murine tumor, the “Days Delay (tumor growth delay)” value turned out to be 3.79 days, the “T/C (ratio of Days to 4x of treated over untreated controls)” value is recorded as 1.4, the “Median (days to 4x)” value stood at 10.8 days and the “Days to 4x (Ave ±SE)” value was determined as 10.3 ± 0.6 days.
`N.N.[Cl][Pt][Cl]` [Cis-platin, cis-platin, reference compound]: in the data set on RIF-1 murine tumor, the “Days Delay (tumor growth delay)” value is 0.82 days, the “T/C (ratio of Days to 4x of treated over untreated controls)” value is 1.1, the “Median (days to 4x)” value amounted to 7.8 days and the “Days to 4x (Ave ±SE)” value is recorded as 8.1 ± 0.4 days.

As usually defined, the inhibition is the relative decrease from the control value, in per cent. Low values mean a weak effect, high ones a strong effect. As a reminder, the IC50 is the concentration that gives 50% inhibition. A higher IC50 goes with a need for much substance.
